We go through twelve compounds from patent US20210177982A1, “MUCUS-PENETRATING PEPTIDES, DELIVERY VEHICLES AND METHODS OF THERAPY” (DNALite Therapeutics, Inc., priority 2018, published 2021).

The conditions of data set [1]: pH 7 (No salt); cited from earlier work.
The conditions of data set [2]: 25° C., RP-HPLC, Ac-X-G-A-K-G-A-G-V-G L-amide; cited from earlier work.
A short description of data set [3]: In-vivo distribution assay (intrarectal, colon cryosections, epifluorescence). Also noted: species or system BALB/c female mice. The conditions noted are these: peptide-coupled DiI/DiO lipid nanoparticle, 30 μg DNA intrarectally, colon after 4 hours, compared to base lipid nanoparticle. The protocol:
Three separate lipid nanoparticle formulations were prepared, one coupled to SEQ ID NO: 29, another coupled to transactivator of transcription peptide (TAT; SEQ ID NO:37) and the last without any coupling, all carried plasmid DNA and included 0.5% mol DiI and DiO labeling. 30 μg of DNA encapsulated in the DiI/DiO lipid nanoparticle are dosed intrarectally in BALB/c female mice (Charles River Laboratory, MA) anesthetized under 1-3% isofluorane. After 4 hours, the mice are euthanized under 25% CO2 and the colon is removed and embedded in optimal cutting temperature (OCT) media. The OCT media sections are flash frozen at −80 degrees Celsius and intestinal sections are taken in a cryostat. Epifluorescence images are taken of crypts under 531 nm excitation with 593 nm emission and overlaid with brightfield illumination. FIGS. 32A-32B.

A further data set concerns the target T1, Poliovirus Receptor (Homo sapiens, UniProt P15151).
T1 sequence (P15151 21-417): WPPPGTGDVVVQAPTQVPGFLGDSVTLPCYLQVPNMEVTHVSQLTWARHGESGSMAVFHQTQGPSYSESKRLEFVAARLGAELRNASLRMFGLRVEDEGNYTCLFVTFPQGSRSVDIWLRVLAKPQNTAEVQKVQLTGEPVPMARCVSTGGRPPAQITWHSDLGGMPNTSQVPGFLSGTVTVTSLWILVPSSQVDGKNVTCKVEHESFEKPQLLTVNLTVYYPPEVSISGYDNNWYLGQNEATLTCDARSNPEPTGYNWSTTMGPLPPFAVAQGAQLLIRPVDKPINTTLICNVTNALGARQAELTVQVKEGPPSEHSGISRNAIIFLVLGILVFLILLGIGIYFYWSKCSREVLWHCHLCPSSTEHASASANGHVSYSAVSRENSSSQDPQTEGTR
The conditions noted are these: cited from earlier work.

With `CC[C@H](C)[C@H](N)C(=O)O` [Ile], the “Fauchere Score” value in data set [1] is 1.8. Besides, in data set [2], the “ΔtR(Gly), pH 2, 20 mM H3PO4” value was 21.3; the “ΔtR(Gly), pH 2, 20 mM TFA” value is listed as 21.4; the “ΔtR(Gly), pH 5, 10 mM PO4 Buffer” value is listed as 22.2; the “ΔtR(Gly), pH 7, 10 mM PO4 Buffer +50 mM NaCl” value is 22.8. In data set [2], the “ΔtR(Gly), pH 7, 10 mM PO4 Buffer +50 mM NaClO4” value is 23.0 and the “ΔtR(Gly), pH 7, 10 mM PO4 Buffer, No Salt” value (shortened to “ΔtR(Gly) … No Salt”) is reported as 22.4.
On to `CC(C)C[C@H](N)C(=O)O` [Leu], for which the “Fauchere Score” value in data set [1] is listed as 1.7. In data set [2], the “ΔtR(Gly), pH 2, 20 mM H3PO4” value was 23.4; the “ΔtR(Gly), pH 2, 20 mM TFA” value is given as 23.3; the “ΔtR(Gly), pH 5, 10 mM PO4 Buffer” value was 24.1; the “ΔtR(Gly), pH 7, 10 mM PO4 Buffer +50 mM NaCl” value is recorded as 24.6. For the same compound, in data set [2], the “ΔtR(Gly), pH 7, 10 mM PO4 Buffer +50 mM NaClO4” value was 25.1 and the “ΔtR(Gly) … No Salt” value is given as 24.2.
For `NCCCC[C@H](N)C(=O)O` [Lys], the “Fauchere Score” value in data set [1] is recorded as −0.990. In data set [2], the “ΔtR(Gly), pH 2, 20 mM H3PO4” value is −7.0; the “ΔtR(Gly), pH 2, 20 mM TFA” value was 2.8; the “ΔtR(Gly), pH 5, 10 mM PO4 Buffer” value was −3.7; the “ΔtR(Gly), pH 7, 10 mM PO4 Buffer +50 mM NaCl” value is reported as −2.0. Besides, in data set [2], the “ΔtR(Gly), pH 7, 10 mM PO4 Buffer +50 mM NaClO4” value was 3.4 and the “ΔtR(Gly) … No Salt” value is on record as −1.1.
Consider `CSCC[C@H](N)C(=O)O` [Met], for which the “Fauchere Score” value in data set [1] was 1.230. Also, in data set [2], the “ΔtR(Gly), pH 2, 20 mM H3PO4” value was 16.1; the “ΔtR(Gly), pH 2, 20 mM TFA” value was 15.7; the “ΔtR(Gly), pH 5, 10 mM PO4 Buffer” value is 16.4; the “ΔtR(Gly), pH 7, 10 mM PO4 Buffer +50 mM NaCl” value is 17.3. For the same compound, in data set [2], the “ΔtR(Gly), pH 7, 10 mM PO4 Buffer +50 mM NaClO4” value is reported as 16.8 and the “ΔtR(Gly) … No Salt” value is reported as 16.3.
For `N[C@@H](Cc1ccccc1)C(=O)O` [Phe], in data set [1], the “Fauchere Score” value was 1.79. Besides, in data set [2], the “ΔtR(Gly), pH 2, 20 mM H3PO4” value is on record as 29.1; the “ΔtR(Gly), pH 2, 20 mM TFA” value was 29.1; the “ΔtR(Gly), pH 5, 10 mM PO4 Buffer” value is reported as 30.1; the “ΔtR(Gly), pH 7, 10 mM PO4 Buffer +50 mM NaCl” value is reported as 30.1. Besides, in data set [2], the “ΔtR(Gly), pH 7, 10 mM PO4 Buffer +50 mM NaClO4” value is recorded as 30.8 and the “ΔtR(Gly) … No Salt” value was 29.9.
For `O=C(O)[C@@H]1CCCN1` [Pro], the “Fauchere Score” value in data set [1] is listed as 0.720. In data set [2], the “ΔtR(Gly), pH 2, 20 mM H3PO4” value was 9.4; the “ΔtR(Gly), pH 2, 20 mM TFA” value is given as 9.0; the “ΔtR(Gly), pH 5, 10 mM PO4 Buffer” value is 9.4; the “ΔtR(Gly), pH 7, 10 mM PO4 Buffer +50 mM NaCl” value was 10.4. In data set [2], the “ΔtR(Gly), pH 7, 10 mM PO4 Buffer +50 mM NaClO4” value is reported as 9.9 and the “ΔtR(Gly) … No Salt” value was 9.7.
Turning to `C[C@@H](O)[C@H](N)C(=O)O` [Thr], in data set [1], the “Fauchere Score” value is reported as 0.260. Moreover, in data set [2], the “ΔtR(Gly), pH 2, 20 mM H3PO4” value is on record as 2.8; the “ΔtR(Gly), pH 2, 20 mM TFA” value is on record as 2.3; the “ΔtR(Gly), pH 5, 10 mM PO4 Buffer” value is reported as 2.8; the “ΔtR(Gly), pH 7, 10 mM PO4 Buffer +50 mM NaCl” value is 4.1. Also, in data set [2], the “ΔtR(Gly), pH 7, 10 mM PO4 Buffer +50 mM NaClO4” value was 2.5 and the “ΔtR(Gly) … No Salt” value is 3.9.
As for `N[C@@H](Cc1c[nH]c2ccccc12)C(=O)O` [Trp], the “Fauchere Score” value in data set [1] was 2.250. Further, in data set [2], the “ΔtR(Gly), pH 2, 20 mM H3PO4” value was 32.3; the “ΔtR(Gly), pH 2, 20 mM TFA” value is 32.4; the “ΔtR(Gly), pH 5, 10 mM PO4 Buffer” value is listed as 33.2; the “ΔtR(Gly), pH 7, 10 mM PO4 Buffer +50 mM NaCl” value was 33.0. Further, in data set [2], the “ΔtR(Gly), pH 7, 10 mM PO4 Buffer +50 mM NaClO4” value is reported as 33.7 and the “ΔtR(Gly) … No Salt” value is recorded as 32.9.
In the case of `N[C@@H](Cc1ccc(O)cc1)C(=O)O` [Tyr], the “Fauchere Score” value in data set [1] is given as 0.960. Besides, in data set [2], the “ΔtR(Gly), pH 2, 20 mM H3PO4” value is recorded as 15.4; the “ΔtR(Gly), pH 2, 20 mM TFA” value is recorded as 14.7; the “ΔtR(Gly), pH 5, 10 mM PO4 Buffer” value was 15.2; the “ΔtR(Gly), pH 7, 10 mM PO4 Buffer +50 mM NaCl” value is 16.0. In data set [2], the “ΔtR(Gly), pH 7, 10 mM PO4 Buffer +50 mM NaClO4” value is 15.1 and the “ΔtR(Gly) … No Salt” value was 15.4.
For the compound `CC(C)[C@H](N)C(=O)O` [Val], in data set [1], the “Fauchere Score” value is given as 1.220. In data set [2], the “ΔtR(Gly), pH 2, 20 mM H3PO4” value is reported as 13.8; the “ΔtR(Gly), pH 2, 20 mM TFA” value is reported as 13.4; the “ΔtR(Gly), pH 5, 10 mM PO4 Buffer” value was 14.0; the “ΔtR(Gly), pH 7, 10 mM PO4 Buffer +50 mM NaCl” value is on record as 15.0. In data set [2], the “ΔtR(Gly), pH 7, 10 mM PO4 Buffer +50 mM NaClO4” value is 14.6 and the “ΔtR(Gly) … No Salt” value is listed as 14.4.
Turning to “GRKKRRQRRRPQ (Human immunodeficiency virus) [SEQ ID NO. 37]”, the “distribution of the particle at the surface of the intestinal epithelial cells” value in data set [3] is on record as “reduced the distribution of the particle at the surface of the intestinal epithelial cells”.
On to TVDNPASTTNKDKLFAV [SEQ ID NO. 28], for which, at Poliovirus Receptor, the “interaction with the Poliovirus Receptor” value is “has been shown to interact with the Poliovirus Receptor”.
